Experimental data taken from US7371524B2, “Substituted azaporphyrins as fluorescence labels” (priority 2003, dated 2008).

Key:
Assay type in all cases: physicochemical
[1] = Fluorescence intensity and polarization of free dye in buffers and glycerol (solvent sensitivity); conditions: for solvent sensitivity of fluorescence intensity: buffer, buffer plus serum, glycerol; for Fluorescence Intensity (I), BBS / Polarization (mp), BBS: borate buffered saline pH 8.0; for Fluorescence Intensity (I), TDx Buffer: intensities comparable only horizontally
Excerpt: The performance of a fluorophore (fluorescent moiety) can be partly assessed by measurements on the free dye i.e., not in a complete fluorescent probe. Meaningful parameters in this kind of test include fluorescence intensity and polarization/anisotropy which usually are altered when the fluorophore is exposed to different ionic strengths, specific ions or biomolecules such as are present in blood serum. These effects may be thought of as “solvent effects” and may be produced either by changes in the interactions between molecules of the fluorophore to change the state of aggregation or between fluorophore molecules and the components of the solvent (nonspecific binding, NSB).
In Table 1 the performance of any one dye can be judged by the changes in fluorescence intensity (I), and/or the changes in polarization (mp, milli-polarization units) as one proceeds horizontally across the table. The “perfect” fluorescence label would have the same values for each of these parameters regardless of the solvent composition.
Abbreviations: mp: […]; TDx Buffer: Commercial buffer used in fluorescence polarization assays; Pc: phthalocyanine; BBS: Borate buffered saline (0.25 M NaCl, 0.0232 M boric acid and 0.00179 M sodium tetraborate. The pH is finally adjusted to 8.0+/−0.05 with 1M NaOH). When serum was tested, 25 μl of whole serum was added to 1 ml of BBS (containing 25 μl of the dye already added). Note that the relative concentrations of the various fluorophores is not known so that comparisons of fluorescence intensities are meaningful only when proceeding in a horizontal direction. An alternative to BBS for manipulating LJB-3 in aqueous solutions is borate buffered KCl (BBKCl) which is made by mixing 33.1 ml of 0.70 M boric acid, 4.0 ml of 0.50 M K2B4O7, 75 ml of 4.0 M KCl and water to make 1 liter: pH ca. 8.1.
Fluorescence measurements: These were made in a transient state polarization fluorometer (FAST-1, Hyperion, Inc. Miami, Fla.)

[2] = Near infrared absorbance of dye
[3] = Passage through membranes and gel permeation chromatography (micelle formation); conditions: PEG dye at 10^−4 M and above
Excerpt: In addition, an advantage emerges in that micelle formation by the PEG is absent. […] Also, the dye moves in the void volume in gel permeation chromatography designed to separate macromolecules from small molecules.

Fluorescence Intensity (I), BBS [1]	Polarization (mp), BBS [1] [mp]	Fluorescence Intensity (I), Glycerol [1]	Polarization (mp), Glycerol [1] [mp]	Polarization (mp), TDx Buffer [1]	Fluorescence Intensity (I), TDx Buffer [1]	sensitivity to ionic strength [1]	near infrared absorbance maximum [2] [nm]	Substance	solvent sensitivity of fluorescence intensity [1]	behaviour on membranes (30K daltons) and in gel permeation chromatography [3]
								Bis-hydroxy (2,3Dicarboxyphthalocyanino) Silicon IV	less sensitive to serum and solvent than is the Al compound	
1078	2.4	454	105	6.7 mp	1069			DiphosphatoSidicarboxyphthalocyanine		
520	3.4	3155	236	1.7 mp	1108	strong sensitivity to ionic strength		Hydroxyaluminumphthalocyaninetrisulfonate [Al Pc trisulfonate, reference compound]	very solvent-sensitive	
741	2.0	1351	199	−.03 mp	1230		679	dihydroxy dicarboxy silicon phthalocyanine sulfonate [LJB-3]	almost the same fluorescence output in buffer, buffer plus serum or glycerol alone	behaves as expected for a molecule of its formula weight
